According to patent publication US10072011B2, “Substituted bridged urea analogs as sirtuin modulators” (GlaxoSmithKline Intellectual Property (No.2) Limited, priority 2014, dated 2018):
Where two headings read alike, the source gives them in different places.

Target: T1, SIRT1 (Homo sapiens, UniProt Q96EB6)
T1 sequence (Q96EB6 1-747): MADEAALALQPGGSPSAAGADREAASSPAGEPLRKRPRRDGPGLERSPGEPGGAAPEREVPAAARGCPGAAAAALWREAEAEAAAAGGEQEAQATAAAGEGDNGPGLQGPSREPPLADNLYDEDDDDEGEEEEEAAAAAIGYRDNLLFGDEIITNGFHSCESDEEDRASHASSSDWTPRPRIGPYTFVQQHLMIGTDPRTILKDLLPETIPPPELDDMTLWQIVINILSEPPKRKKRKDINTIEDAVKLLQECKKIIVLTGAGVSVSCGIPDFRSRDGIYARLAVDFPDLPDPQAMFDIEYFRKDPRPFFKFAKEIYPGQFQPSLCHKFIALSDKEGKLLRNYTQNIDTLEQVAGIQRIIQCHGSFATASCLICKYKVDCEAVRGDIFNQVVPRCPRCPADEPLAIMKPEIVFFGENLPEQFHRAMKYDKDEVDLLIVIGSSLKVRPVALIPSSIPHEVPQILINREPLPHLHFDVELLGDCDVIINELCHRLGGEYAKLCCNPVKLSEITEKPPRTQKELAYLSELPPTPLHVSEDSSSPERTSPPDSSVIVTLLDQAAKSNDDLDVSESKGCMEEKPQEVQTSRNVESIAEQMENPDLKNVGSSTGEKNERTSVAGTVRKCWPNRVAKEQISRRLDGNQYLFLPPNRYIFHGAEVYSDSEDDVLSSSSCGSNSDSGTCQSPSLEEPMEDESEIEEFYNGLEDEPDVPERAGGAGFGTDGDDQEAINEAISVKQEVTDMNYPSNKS
Assay: Trp mass spectrometry assay of SIRT1 activation (Ac-R-H-K-K(Ac)-W-NH2 peptide)
Format: biochemical
Conditions: for Emax: 25 min, read-out: TRP MAX RESP (percent maximum fold activation)
How it was run: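 N-terminal His-tagged human SIRT1, expressed in BL21(DE3) and purified, was incubated 25 min with an acetylated Trp peptide and NAD plus test compound at varying concentrations, then quenched with formic acid. OAADPR or deacetylated peptide was quantified by mass spectrometry versus compound-free control; EC1.5 is the concentration giving 50% activity increase, with percent maximum activation.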

[1] = Trp peptide 0.5 μM, 120 μM βNAD+, 10 nM SIRT1, 25 min at 25° C., relative to control (100%)
[2] = Trp peptide 0.5 μM, 120 μM βNAD+, 10 nM SIRT1, 25 min at 25° C.

SMILES | Emax [1] | TRP Activity (EC1.5, concentration of test compound that results in 150% activation of SIRT1) [2] | Emax
O=C(N[C@H]1C[C@H](O)C1)c1ccc2c(n1)N(C(=O)Nc1ccccn1)[C@H]1CCN2C1 (racemic) [Example 210, (4S)—N7-((1r,3S)-3-hydroxycyclobutyl)-N5-(pyridin-2-yl)-3,4-dihydro-1,4-methanopyrido[2,3-b][1,4]diazepine-5,7(2H)-dicarboxamide] | > 150% | B (EC1.5 1-25 μM) | 
O=C(NC1CCC1)c1ccc2c(n1)N(C(=O)Nc1cnccn1)[C@H]1CCN2C1 [Example 206, (4S)—N7-cyclobutyl-N5-(pyrazin-2-yl)-3,4-dihydro-1,4-methanopyrido[2,3-b][1,4]diazepine-5,7(2H)-dicarboxamide] | > 150% | B (EC1.5 1-25 μM) | 
CC[C@@H](CO)NC(=O)c1ccc2c(n1)N(C(=O)Nc1ccccn1)[C@H]1CCN2C1 [Example 30, (4S)—N7-((S)-1-hydroxybutan-2-yl)-N5-(pyridin-2-yl)-3,4-dihydro-1,4-methanopyrido[2,3-b][1,4]diazepine-5,7(2H)-dicarboxamide] | > 150% | A (EC1.5<1 μM) | 
O=C(NC1CC1(F)F)c1ccc2c(n1)N(C(=O)Nc1ccc(F)cn1)[C@H]1CCN2C1 (single isomer, unassigned) [Example 243] |  | A (EC1.5<1 μM) | 
C[C@@H](NC(=O)c1ccc2c(n1)N(C(=O)Nc1cc(-c3ncn[nH]3)ccn1)[C@H]1CCN2C1)C(F)(F)F [Example 322, (4S)—N5-(4-(1H-1,2,4-triazol-5-yl)pyridin-2-yl)-N7-((R)-1,1,1-trifluoropropan-2-yl)-3,4-dihydro-1,4-methanopyrido[2,3-b][1,4]diazepine-5,7(2H)-dicarboxamide] | < 150% | A (EC1.5<1 μM) | 
CC(C)[C@@H](C)NC(=O)c1ccc2c(n1)N(C(=O)Nc1ccc(F)cn1)[C@H]1CCN2C1 [Example 80, (4S)—N5-(5-fluoropyridin-2-yl)-N7-((R)-3-methylbutan-2-yl)-3,4-dihydro-1,4-methanopyrido[2,3-b][1,4]diazepine-5,7(2H)-dicarboxamide] | > 150% | A (EC1.5<1 μM) | 
C[C@@H](NC(=O)c1ccc2c(n1)N(C(=O)Nc1ncc(OC[C@H](O)CO)cn1)[C@H]1CCN2C1)C(F)(F)F [Example 173, (4S)—N5-(5-((R)-2,3-dihydroxypropoxy)pyrimidin-2-yl)-N7-((R)-1,1,1-trifluoropropan-2-yl)-3,4-dihydro-1,4-methanopyrido[2,3-b][1,4]diazepine-5,7(2H)-dicarboxamide] | > 150% | A (EC1.5<1 μM) | 
O=C(NC1CCCCC1)c1ccc2c(n1)N(C(=O)Nc1ccccn1)[C@H]1CCN2C1 [Example 27, (4S)—N7-cyclohexyl-N5-(pyridin-2-yl)-3,4-dihydro-1,4-methanopyrido[2,3-b][1,4]diazepine-5,7(2H)-dicarboxamide] |  | A (EC1.5<1 μM) | > 150%
N#CCNC(=O)c1ccc2c(n1)N(C(=O)Nc1ccccn1)[C@H]1CCN2C1 [Example 107, (4S)—N7-(cyanomethyl)-N5-(pyridin-2-yl)-3,4-dihydro-1,4-methanopyrido[2,3-b][1,4]diazepine-5,7(2H)-dicarboxamide] |  | A (EC1.5<1 μM) | > 150%
O=C(NC1CC1(F)F)c1ccc2c(n1)N(C(=O)Nc1ccccn1)[C@H]1CCN2C1 (single isomer, unassigned) [Example 43] | > 150% | A (EC1.5<1 μM) | 
O=C(NCCC(F)(F)F)c1ccc2c(n1)N(C(=O)Nc1ccc(F)cn1)[C@H]1CCN2C1 [Example 79, (4S)—N5-(5-fluoropyridin-2-yl)-N7-(3,3,3-trifluoropropyl)-3,4-dihydro-1,4-methanopyrido[2,3-b][1,4]diazepine-5,7(2H)-dicarboxamide] | > 150% | A (EC1.5<1 μM) | 
C[C@@H](NC(=O)c1ccc2c(n1)N(C(=O)Nc1nccc(OC[C@@H](O)CO)n1)[C@H]1CCN2C1)C(F)(F)F [Example 154, (4S)—N5-(4-((S)-2,3-dihydroxypropoxy)pyrimidin-2-yl)-N7-((R)-1,1,1-trifluoropropan-2-yl)-3,4-dihydro-1,4-methanopyrido[2,3-b][1,4]diazepine-5,7(2H)-dicarboxamide] | > 150% | A (EC1.5<1 μM) | 
C#Cc1ccnc(NC(=O)N2c3nc(C(=O)NCC(F)(F)F)ccc3N3CC[C@H]2C3)c1 [Example 164, (4S)—N5-(4-ethynylpyridin-2-yl)-N7-(2,2,2-trifluoroethyl)-3,4-dihydro-1,4-methanopyrido[2,3-b][1,4]diazepine-5,7(2H)-dicarboxamide] | > 150% | A (EC1.5<1 μM) | 
C[C@@H](NC(=O)c1ccc2c(n1)N(C(=O)Nc1cc(OCCO)ccn1)[C@H]1CCN2C1)C(F)(F)F [Example 132, (4S)—N5-(4-(2-hydroxyethoxy)pyridin-2-yl)-N7-((R)-1,1,1-trifluoropropan-2-yl)-3,4-dihydro-1,4-methanopyrido[2,3-b][1,4]diazepine-5,7(2H)-dicarboxamide] | > 150% | A (EC1.5<1 μM) | 
Cc1cc(F)cnc1NC(=O)N1c2nc(C(=O)N[C@H](C)C(F)(F)F)ccc2N2CC[C@H]1C2 [Example 57, (4S)—N5-(5-fluoro-3-methylpyridin-2-yl)-N7-((R)-1,1,1-trifluoropropan-2-yl)-3,4-dihydro-1,4-methanopyrido[2,3-b][1,4]diazepine-5,7(2H)-dicarboxamide] | > 150% | B (EC1.5 1-25 μM) | 
Cc1ccnc(NC(=O)N2c3nc(C(=O)NC4CC4)ccc3N3CC[C@H]2C3)c1 [Example 22, (4S)—N7-cyclopropyl-N5-(4-methylpyridin-2-yl)-3,4-dihydro-1,4-methanopyrido[2,3-b][1,4]diazepine-5,7(2H)-dicarboxamide] | > 150% | B (EC1.5 1-25 μM) | 
C[C@@H](NC(=O)c1ccc2c(n1)N(C(=O)Nc1cc(C(N)=O)ccn1)[C@H]1CCN2C1)C(F)(F)F [Example 137, (4S)—N5-(4-carbamoylpyridin-2-yl)-N7-((R)-1,1,1-trifluoropropan-2-yl)-3,4-dihydro-1,4-methanopyrido[2,3-b][1,4]diazepine-5,7(2H)-dicarboxamide] | > 150% | A (EC1.5<1 μM) | 
Cc1ncc(-c2ccnc(NC(=O)N3c4nc(C(=O)NCC(F)(F)F)cc(C)c4N4CC[C@H]3C4)c2)o1 [Example 293, (4S)-9-methyl-N5-(4-(2-methyloxazol-5-yl)pyridin-2-yl)-N7-(2,2,2-trifluoroethyl)-3,4-dihydro-1,4-methanopyrido[2,3-b][1,4]diazepine-5,7(2H)-dicarboxamide] | < 150% | A (EC1.5<1 μM) | 
O=C(NCC(F)F)c1ccc2c(n1)N(C(=O)Nc1ccccn1)[C@H]1CCN2C1 [Example 116, (4S)—N7-(2,2-difluoroethyl)-N5-(pyridin-2-yl)-3,4-dihydro-1,4-methanopyrido[2,3-b][1,4]diazepine-5,7(2H)-dicarboxamide] |  | A (EC1.5<1 μM) | > 150%
CC(F)(F)CNC(=O)c1ccc2c(n1)N(C(=O)Nc1cc(OC[C@H](O)CO)ccn1)[C@H]1CCN2C1 [Example 183, (4S)—N7-(2,2-difluoropropyl)-N5-(4-((R)-2,3-dihydroxypropoxy)pyridin-2-yl)-3,4-dihydro-1,4-methanopyrido[2,3-b][1,4]diazepine-5,7(2H)-dicarboxamide] | > 150% | B (EC1.5 1-25 μM) | 
